The values below come from patent US20240382490A1, “QUINAZOLINE-THIOHYDANTOIN FUSED HETEROCYCLES WHICH ARE SUITABLE FOR TREATING, AMELIORATING OR PREVENTING A PROLIFERATIVE DISORDER” (FRIEDRICH-ALEXANDER-UNIVERSITÄT ERLANGEN NÜRNBERG, priority 2021, published 2024).

Where two headings read alike, the source gives them in different places.

Broadly, the IC50 is the point on the concentration scale where inhibition reaches its midpoint.

The test system of assay [1] is wild-type CCRF CEM cells. The note with it: sensitive wild-type CCRF CEM cells; previously reported (NPL-9, NPL-10), footnote calls them EC50; cited from earlier work.
Assay [2] deals with multidrug resistant P glycoprotein-overexpressing CEM/ADR5000 cells. The conditions noted are these: previously reported (NPL-9, NPL-10), footnote calls them EC50; cited from earlier work.
A further assay relates to human endometrium cells. The note with it: NPL-12, read-out: Healthy cells IC50 (human endometrium cells); cited from earlier work.
The test system of assay [3] is wild-type CCRF CEM cells. As to the kind of experiment: IC50 in sensitive wild-type CCRF CEM leukemia cells. The format is cell-based, human.
For assay [4], the system named is multidrug resistant P glycoprotein-overexpressing CEM/ADR5000 cells. As to the kind of experiment: IC50 in multidrug resistant CEM/ADR5000 leukemia cells. It is filed as cell-based, human.
A further assay has as its system healthy human cells. In words: IC50 in healthy cells (selectivity). The format is cell-based. The note with it: for IC50: healthy human cells; for Activity against healthy cells relative to CEM/ADR5000 cells: healthy cells IC50 compared with CEM/ADR5000 IC50.
Another assay has as its system RPMI-8226 cells. As to the kind of experiment: CellTiter-Blue cell viability assay, RPMI-8226. It is filed as cell-based. The note with it: five dose (0.01, 0.1, 1, 10, 100 μM) screening, 48 h treatment. On the procedure:
(§1) All leukemia cell lines (RPMI-8226, K562, HL-60, and MOLT-4) were obtained from NCI-DTP, NCI-Frederick, USA. Cells were cultured and maintained in RPMI-1640 (Corning, USA; #10-040-CV) media supplemented with 10% FBS (Corning, USA; #35-015-CV) and 1% penicillin-streptomycin-amphotericin B (GIBCO, USA; #15240-062) at 37° C. with 5% CO2. At 70 to 80% confluence cells were harvested and plated for cell viability assay.
(§2) Each leukemia cell line was plated at 3000 cells/well (in 100 μL complete media) in black-clear bottom 96-well plates (Corning, USA; #3603). After 24 h, cells were treated with respective compounds at one dose (10 μM) or five dose (0.01, 0.1, 1, 10, 100 μM) concentrations. After 48 h treatment, cell viability was recorded using CellTiter-Blue cell viability assay (Promega, USA; #G8081) as per the manufacturer's protocol.
(The colour change of resazurin is a common sign of viable cells or microbes.)

The test system of a further assay is K562 cells. As to the kind of experiment: CellTiter-Blue cell viability assay, K562. It is filed as cell-based. The conditions noted are these: for IC50: five dose (0.01, 0.1, 1, 10, 100 μM) screening, 48 h treatment. The protocol: as §1, §2
The next assay has as its system HL-60 cells. In words: CellTiter-Blue cell viability assay, HL-60. It is filed as cell-based. The conditions noted are these: for IC50: five dose (0.01, 0.1, 1, 10, 100 μM) screening, 48 h treatment. On the procedure:
as §1, §2

A further assay relates to MOLT-4 cells. As to the kind of experiment: CellTiter-Blue cell viability assay, MOLT-4. It is filed as cell-based. The note with it: five dose (0.01, 0.1, 1, 10, 100 μM) screening, 48 h treatment. The protocol:
as §1, §2

The subject of another assay is MRTF-A. As to the kind of experiment: MRTF-A nuclear localization in HAP1 cells. It is filed as cell-based. The conditions noted are these: human leukemia cell line HAP1, FIG. 4. On the procedure:
(§3) Quinazoline-thiohydantoin fused heterocycles 5g and 5k were to tested to determine whether they can inhibit MRTF-A nuclear localization to overcome resistance. First the localization of MRTF-A in a human leukemia cell line (HAP1) was analyzed. […] It was also tested whether 5g can activate cellular senescence.

Assay [5] deals with human leukemia cell line (HAP1). As to the kind of experiment: Cellular senescence in HAP1 cells. It is filed as cell-based. The conditions noted are these: mediated by oncogene Ras and downstream MAPK/pRb pathways, FIG. 4. On the procedure:
as §3

In a further assay the test system is human fibroblasts. The note with it: normal tissue cell line (human fibroblasts), NPL-11; read-out: Healthy cells IC50 (overall IC50 in human fibroblasts); cited from earlier work.
Setting [6] is: one dose (10 μM), 48 h, FIG. 5A.

For the molecule `C[C@@H]1CC[C@H]2[C@@H](C)C(=O)O[C@@H]3O[C@@]4(C)CC[C@@H]1[C@]32OO4` [Artemisinin, artemisinin], the half-inhibitory concentration (IC50) in the assay with wild-type CCRF CEM cells [1] is 36.9 ± 6.9 µM; in [2] it was 26.9 ± 4.4 µM; with human endometrium cells, 69.6 µM.
Regarding `O=C1C2=Nc3ccccc3CN2C(=S)N1c1ccc([N+](=O)[O-])cc1` [Compound 3a], the IC50 in the assay with wild-type CCRF CEM cells [3] was 27.8 ± 2.6 µM; in assay [4], 26.8 ± 1.67 µM; with healthy human cells, 19.8 ± 4.8 µM.
With `COc1cccc(N2C(=O)C3=Nc4ccccc4CN3C2=S)c1` [Compound 3j], the results for the IC50 (in the assay on wild-type CCRF CEM cells [3]; in assay [4]; in the assay with healthy human cells) were 28.1 ± 0.831 µM, 28.1 ± 0.972 µM and 42.8 ± 6.1 µM, respectively.
Taken in the same sequence, the figures for `CC(C)c1cccc(C(C)C)c1N1C(=O)C2=Nc3ccccc3CN2C1=S` [Compound 3l] were 25.1 ± 6.49 µM, 19.1 ± 7.1 µM and 30.5 ± 0.5 µM.
Taken in the same sequence, the figures for `CC(c1ccccc1)N1C(=O)C2=Nc3ccc(Br)cc3CN2C1=S` (stereo not drawn) [Compound 5a] were 0.483 ± 0.025 µM, 0.409 ± 0.028 µM and 2.2 ± 0.2 µM.
As to `C[C@H](c1ccccc1)N1C(=O)C2=Nc3cc([N+](=O)[O-])ccc3CN2C1=S` [Compound 5d], the IC50 in the assay on wild-type CCRF CEM cells [3] came out at 0.14 ± 0.028 µM; in [4], 0.127 ± 0.019 µM; in the assay on healthy human cells it was 2.5 ± 0.8 µM. Also, the “Activity against healthy cells relative to CEM/ADR5000 cells” value with healthy human cells is given as “fifteen to twenty times lower activity”.
Regarding `CC(c1ccccc1)N1C(=O)C2=Nc3ccc(Cl)cc3CN2C1=S` (stereo not drawn) [Compound 5e], the IC50 stood at 0.375 ± 0.043 µM in the assay on wild-type CCRF CEM cells [3], 0.295 ± 0.083 µM in assay [4] and 2.4 ± 0.5 µM in the assay with healthy human cells.
`CC(c1ccccc1)N1C(=O)C2=Nc3cc(Cl)ccc3CN2C1=S` (stereo not drawn) [Compound 5f]: the IC50 in the assay on wild-type CCRF CEM cells [3] turned out to be 0.228 ± 0.022 µM; in assay [4], 0.156 ± 0.013 µM; with healthy human cells, 2.3 ± 0.7 µM. The “Activity against healthy cells relative to CEM/ADR5000 cells” value in the assay on healthy human cells is reported as “fifteen to twenty times lower activity”.
As for `CC(c1ccccc1)N1C(=O)C2=Nc3cccc(Cl)c3CN2C1=S` (stereo not drawn) [Compound 5g], the IC50 with wild-type CCRF CEM cells [3] came out at 0.125 ± 0.024 µM; in assay [4], 0.146 ± 0.015 µM; in the assay on healthy human cells, 2.8 ± 0.6 µM; with RPMI-8226 cells it was 15 ± 1.39 µM; in the assay on K562 cells it was 7.8 ± 0.63 µM; in the assay with HL-60 cells, 9.9 ± 0.71 µM. This molecule displayed an IC50 in the assay with MOLT-4 cells of 18.5 ± 2.17 µM. For the same molecule, in the assay with healthy human cells, the “Activity against healthy cells relative to CEM/ADR5000 cells” value was “fifteen to twenty times lower activity”. In addition, the “One dose cell viability screening, K562” value with K562 cells (setting [6]) is reported as “more active compared to 5k”. The “One dose cell viability screening, HL-60” value in the assay on HL-60 cells (setting [6]) is recorded as “more active compared to 5k”. For the same molecule, the “Effect on MRTF-A nuclear localization” value with MRTF-A is listed as “efficiently increased cytoplasmic MRTF-A nuclear localization”. In assay [5], the “Activation of cellular senescence” value is “able to provoke a senescence response”.
With `COc1ccc2c(c1)CN1C(=S)N(C(C)c3ccccc3)C(=O)C1=N2` (stereo not drawn) [Compound 5k], the IC50 in the assay with wild-type CCRF CEM cells [3] stood at 1.53 ± 0.148 µM; in [4], 1.33 ± 0.247 µM; with healthy human cells, 1.9 ± 0.4 µM; with RPMI-8226 cells, 14 ± 2.43 µM; in the assay with K562 cells it was 24.7 ± 4.01 µM; in the assay on HL-60 cells, 41.1 ± 3.12 µM. This molecule came in with a half-inhibitory concentration (IC50) in the assay on MOLT-4 cells of 28.7 ± 2.08 µM.
As to `COc1cccc2c1C(=O)c1c(O)c3c(c(O)c1C2=O)C[C@@](O)(C(=O)CO)C[C@@H]3O[C@H]1C[C@H](N)[C@H](O)[C@H](C)O1` [Doxorubicin, doxorubicin], the figures for the IC50 (in the assay on wild-type CCRF CEM cells [1]; in assay [2]; with human fibroblasts) were 0.009 µM, 23.3 µM and 1.8 µM, respectively.
